# Reference: PubChem BioAssay AID1996
# Details: buffer; pH 7.4; 200.0 µM
row,SMILES,solubility kinetic
1,O=c1onc(-c2c(F)cccc2F)n1-c1ccccc1Cl,1 µg/mL
2,Cc1cc(C)cc(Oc2coc3c(CN(C)C)c(O)ccc3c2=O)c1,> 50.9 µg/mL
3,Cc1ccccc1NC(=O)C1CCN(C(=O)NC2CCCCC2)CC1,> 51.5 µg/mL
4,CC(NC(=O)CCNC(=O)c1ccco1)c1ccccc1 (stereo not drawn),> 42.9 µg/mL
5,Cc1ccc(CC2C(=O)N(c3nc(C)cc(C)n3)C(=O)C2C)cc1 (stereo not drawn),> 48.5 µg/mL
6,CN(C)CCCN(Cc1ccc2c(c1)OCO2)C(=O)NC1CCCCC1,> 54.2 µg/mL
7,COc1cc2c(cc1OC)C(C)N(C(=O)Nc1ccccc1)CC2 (stereo not drawn),39 µg/mL
8,O=C(OCC(=O)N1CCc2ccccc2C1)c1cccs1,36.8 µg/mL
9,CCOc1ccc(C(C)NC(=O)c2cccs2)cc1OCC (stereo not drawn),11.1 µg/mL
10,O=c1[nH]c2ccccc2c(O)c1O,> 26.6 µg/mL
11,O=C(Nc1nc2ccccc2s1)NC1CCCCC1,1.6 µg/mL
12,O=C(O)COCC(=O)NCc1csc2ccc(Cl)cc12,> 47.1 µg/mL
13,O=C(NC1CC1)c1ccc(N2CCCCC2)c([N+](=O)[O-])c1,> 43.4 µg/mL
14,O=C(NCCc1ccc(F)cc1)c1cc(=O)c2ccccc2o1,9.4 µg/mL
15,COc1ccc(S(=O)(=O)NCCc2ccccc2)cc1OC,39.9 µg/mL
16,N#Cc1cccc(S(=O)(=O)NCc2nnc3ccccn23)c1,> 47 µg/mL
17,Cc1ccc(Br)c(NS(=O)(=O)c2cccc(C(=O)N3CCNC(=O)C3)c2)c1,> 67.8 µg/mL
18,CC(=O)OC1(c2ccccc2)CCN(C)CC1(C)C.Cl (stereo not drawn),44.2 µg/mL
19,CC(C)N1C(=O)C2(OCCCO2)c2cc(Br)ccc21,46.9 µg/mL
20,CC(=O)Nc1ccc(-c2csc(NC(=O)CCNC(=O)c3ccco3)n2)cc1,11.7 µg/mL
21,Cc1ccc2nc(N3CCCCC3)c(C=O)c(=O)n2c1,39.1 µg/mL
22,Cc1cc([N+](=O)[O-])nn1CC(=O)NCCCN1CCOCC1,> 46.7 µg/mL
23,CCC1CCCCN1C(=O)CSc1nc(N)cc(=O)[nH]1 (stereo not drawn),42.2 µg/mL
24,CCOC(=O)CC1C(=O)NCCN1S(=O)(=O)c1ccc(C)cc1 (stereo not drawn),> 51.1 µg/mL

row,SMILES,solubility kinetic
1,COc1cc([N+](=O)[O-])ccc1NC(=O)COC(=O)C=C(C)C,3.6 µg/mL
2,Cc1cccc(-n2c(C)nc3ccsc3c2=O)c1,35.8 µg/mL
3,O=C(NCCc1ccc(F)cc1)c1ccc([N+](=O)[O-])cc1,4.6 µg/mL
4,CC(C)[C@H](NC(=O)c1ccccc1Cl)C(=O)OCC(=O)NC(=O)NCc1ccco1,40.1 µg/mL
5,OCCC1CN(CC2CCCCC2)CCN1C1CCCC1 (stereo not drawn),40.8 µg/mL
6,COc1cc2ccccc2cc1C(=O)N1CCCC1,> 38.3 µg/mL
7,Cc1onc(-c2c(F)cccc2Cl)c1C(=O)N1CCCCC1,> 48.4 µg/mL
8,COc1ccc(NS(=O)(=O)c2ccc(O)c([N+](=O)[O-])c2)cc1S(=O)(=O)N1CCCCC1,> 70.7 µg/mL
9,CCN(c1ccccc1)S(=O)(=O)c1ccc(OC)c(NC(=O)c2cc(F)c(F)c(F)c2F)c1,0.7 µg/mL
10,COc1ccc(NC(=O)C2C3CCC(O3)C2C(=O)O)cc1OC (stereo not drawn),> 48.2 µg/mL
11,O=C(CN1C(=O)NC(c2ccccc2)(c2ccccc2)C1=O)NCCc1ccc(F)cc1,7.6 µg/mL
12,Fc1ccc(CNCc2ccco2)cc1,11.8 µg/mL
13,CC(C)(C)NC(=O)COC(=O)c1c2c(nc3ccccc13)CCC2,35.8 µg/mL
14,Cc1ccccc1NC(=O)CN1CCN(C(=O)c2ccco2)CC1,> 49.1 µg/mL
15,CC(C)N1CCN(Cc2cc3ccccc3[nH]2)CC1CCO (stereo not drawn),> 45.2 µg/mL
16,O=C(O)C(=O)O.O=[N+]([O-])c1ccccc1CNC1CCCCCC1,> 50.8 µg/mL
17,Oc1ccc(C=Nc2ccc3ncccc3c2)c(O)c1,30.5 µg/mL
18,CC(C)N(C(=O)COC(=O)c1cccnc1Cl)c1ccccc1,> 49.9 µg/mL
19,Nc1ccc(N2CCCCC2)c2nonc12,> 32.7 µg/mL
20,Cc1ccc(S(=O)(=O)NCCNc2ccc(Br)c(C)c2)cc1,0.6 µg/mL
21,COc1ccc(CN2C(=O)CSCC2=O)cc1OC,> 42.2 µg/mL
22,COC(=O)c1cc(OC)c(OC)c(OC)c1[N+](=O)[O-],38.5 µg/mL
23,O=C(NC(=S)Nc1ccc(Br)c(Cl)c1)C1CC1,< 0.4 µg/mL
24,Cc1noc(C)c1COc1ccc(C(=O)NCc2cccs2)cc1,16.5 µg/mL

row,SMILES,solubility kinetic
1,Cc1nc(-c2noc(-c3cccc(Cl)c3)n2)c(C(F)(F)F)o1,< 0.2 µg/mL
2,CC(C)(C)c1cc(NS(=O)(=O)c2ccc(Br)s2)no1,30.1 µg/mL
3,CCCCOc1ccc(/C=C(\C(=O)O)c2ccc(S(=O)(=O)N3CCCC3)s2)cc1,> 65.3 µg/mL
4,COc1cccc(NC(=O)N2C3CCCC2CC(NC(C)=O)C3)c1 (stereo not drawn),> 49.7 µg/mL
5,CCN(CC(=O)Nc1c(F)cccc1F)C(=O)CCCc1c[nH]c2ccccc12,7.4 µg/mL
6,CSc1nc(N2CCOCC2)c2sccc2n1,38.6 µg/mL
7,O=C1C(Cl)=C(N2CCCC2)C(=O)N1c1ccccc1F,> 44.2 µg/mL
8,CC(Oc1ccccc1)C(=O)N1CCN=C1SCc1cccc(F)c1 (stereo not drawn),11.1 µg/mL
9,O=C(CNC(=O)c1ccccc1)OCC(=O)c1c[nH]c2ccccc12,18.6 µg/mL
10,CCOC(=O)CC1C(=O)NCCN1C(=O)c1ccc(C)cc1 (stereo not drawn),> 45.7 µg/mL
11,Cc1ccc(NC(=O)CCc2ccccc2)cc1S(=O)(=O)N1CCOCC1,56.7 µg/mL
12,O=C1CC(/C=C/c2ccccc2)=Nc2ccccc2N1,2.1 µg/mL
13,O=C(COC(=O)c1ccc(Cl)nc1)Nc1ccc(N2CCCCC2)cc1,10.9 µg/mL
14,Cc1ccc(NC(=O)C2=C(C(=O)O)CCCC2)cc1Br,33.3 µg/mL
15,N#C/C(=C\C=C\c1ccccc1)C(=O)NCc1cccnc1,6.3 µg/mL
16,Cc1ccc(C(=O)Nc2cccc(NC(=O)c3cccs3)c2)c(C)c1,0.6 µg/mL
17,Cn1c(=O)oc2cc(S(=O)(=O)Nc3ccc(Cl)cc3)ccc21,4.1 µg/mL
18,O=C(Nc1nc(-c2ccc(F)c(F)c2)cs1)Nc1ccc(F)cc1F,< 0.3 µg/mL
19,O=C(Nc1ccc(O)cc1)c1ccc(NC(=O)c2cccs2)cc1,0.8 µg/mL
20,O=C(NCc1csc(-c2cccs2)n1)C1CCCCC1,3.9 µg/mL
21,CSCCC(NC(=O)c1ccco1)C(=O)NCCc1ccc(Cl)cc1 (stereo not drawn),19.6 µg/mL
22,O=C(Nc1ccccc1Cl)Nc1cccc2cccnc12,< 0.2 µg/mL
23,Cc1cc(OC2CCCCC2)nc(NCc2ccccc2)n1,0.3 µg/mL
24,O=S(=O)(c1ccc2ncn(O)c2c1)N1CCOCC1,> 42.5 µg/mL

row,SMILES,solubility kinetic
1,NC(=O)c1ccc(NC(=O)COC(=O)CC23CC4CC(CC(Br)(C4)C2)C3)cc1,> 67.4 µg/mL
2,CC(=O)N1c2ccc(C)cc2C(c2ccccc2)CC1C (stereo not drawn),40.6 µg/mL
3,COc1ccccc1NC(=O)NCc1ccc(C)n1C,19.9 µg/mL
4,COc1ccc(C(=O)OCC(=O)NCCc2ccc(F)cc2)cc1S(=O)(=O)N1CCOCC1,> 72.1 µg/mL
5,CC(C)N1CCN(Cc2ccsc2)CC1CCO (stereo not drawn),> 40.3 µg/mL
6,Cc1cc(N2CCOCC2)nc2ccc(Cl)cc12,1.7 µg/mL
7,N#Cc1cccc(CS(=O)(=O)c2ccc(Cl)cc2)c1,38.2 µg/mL
8,COCCCNc1nc2nonc2nc1NCCSC,37.1 µg/mL
9,COC(=O)c1cnc(Nc2cc(C)ccc2OC)c2ccccc12,0.7 µg/mL
10,Cc1cc(=O)oc2cc(OCCSCCN3CCCCC3)ccc12,> 52.1 µg/mL
11,CCN(c1ccccc1)S(=O)(=O)c1ccc(Oc2ccccc2C(C)=O)nc1,18.6 µg/mL
12,O=C(Nc1ccc(F)c(F)c1)C1=COCCO1,35.6 µg/mL
13,COC(=O)C1CCN(c2cc(Cl)nc(N)n2)CC1,24.5 µg/mL
14,O=C(NCc1ccccc1Cl)c1ccc(Br)o1,41.9 µg/mL
15,COc1ccc(CNC(=O)COC(=O)c2ccccn2)cc1,> 45 µg/mL
16,Cl.Fc1ccc(-c2csc(Nc3ccccn3)n2)c(F)c1,< 0.2 µg/mL
17,O=C(Nc1nc2cc3c(cc2s1)OCO3)C1CC1,< 0.3 µg/mL
18,O=[N+]([O-])c1ccccc1S(=O)(=O)Nc1ccc2c(c1)OCCO2,> 50.4 µg/mL
19,CCOc1ncccc1C(=O)NCCCSc1ccccc1,34.2 µg/mL
20,COC(=O)c1c(C)oc(C)c1S(=O)(=O)NCC1CC1,> 43.1 µg/mL
21,CCc1ccccc1NC(=O)CC(=O)Nc1ccccc1CC,> 46.6 µg/mL
22,O=c1ccc2c([nH]1)CCCCCCCCCC2,5.2 µg/mL
23,Cc1cc(Br)ccc1N=C1NC(=O)CS1,> 42.8 µg/mL
24,CCOC(=O)COc1nc(-c2ccc(Cl)cc2)cc(-c2ccco2)c1C#N,< 0.4 µg/mL

row,SMILES,solubility kinetic
1,Cc1cc(C(=O)Nc2ccccc2C)c2ccccc2n1,34.7 µg/mL
2,CCOC(=O)C1=C(C)NC(C)=C(C(=O)OCC)C1C(=O)OCC(=O)NCc1ccc(F)cc1,> 69.4 µg/mL
3,Cc1ccc(NC(=O)C(=O)NCC2CCCO2)cc1C (stereo not drawn),> 41.5 µg/mL
4,Cc1ccc2c(c1)C1C[N+](C)(CC(=O)Nc3ccccc3Cl)CCC1N2C(=O)c1ccccc1Cl.[Cl-] (stereo not drawn),> 81.7 µg/mL
5,C=CCNC(=O)c1c(O)c2cccc3c2n(c1=O)CCC3,< 0.3 µg/mL
6,CCn1cc(C(=O)OC)c(=O)c2ccc(C)nc21,36.4 µg/mL
7,NC(=O)C1CCN(C(=O)c2ccccc2CCc2ccccc2)CC1,> 50.5 µg/mL
8,Nc1nc(CCl)nc(Nc2ccc3ccccc3c2)n1,29.3 µg/mL
9,O=C(c1ccc([N+](=O)[O-])s1)N1CCc2ccccc2C1,2.8 µg/mL
10,O=C(c1ccc2c(c1)OCCCO2)N1CCCCC1,28.6 µg/mL
11,COCCNC(=O)COC(=O)c1cccnc1SC,> 42.6 µg/mL
12,O=C(COc1ccc(Cl)cc1)NCCN1CCCCC1,> 44.5 µg/mL
13,CCOc1ccc(NC(=O)c2ccc3[nH]c(=O)c(=O)[nH]c3c2)cc1,4.8 µg/mL
14,COc1cnc(-c2ccccc2)nc1OC,19.1 µg/mL
15,Cc1nnc(SCC(=O)NC2CCCCC2)[nH]c1=O,> 42.4 µg/mL
16,CCn1c(NC(=O)/C=C/c2ccc(F)cc2)nc2ccccc21,3.5 µg/mL
17,Cc1ccc2nc(-c3ccccc3)oc(=O)c2c1,0.9 µg/mL
18,COCCOc1ccc(C(F)(F)F)cc1NC(=O)COC(=O)c1ccc(N2CCCC2=O)cc1,3 µg/mL
19,Cc1cc(C)cc(NC(=O)COC(=O)CC2CCCC2)c1,21.1 µg/mL
20,Cc1ccc(C)c(C(=O)NC(C)CCc2ccccc2)c1 (stereo not drawn),0.7 µg/mL
21,NC(=O)COc1ccc2cc(-c3ccc(F)cc3)c(=O)oc2c1,< 0.7 µg/mL
22,COc1cc(C)c(S(=O)(=O)NOCc2ccccc2)c(C)c1C,5.5 µg/mL
